This is an account of results in patent US7709471B2, “Compounds” (AstraZeneca AB, priority 2006, dated 2010).

One test deals with recombinant Plk1 (Homo sapiens, UniProt P53350). Description: In Vitro Plk1 Enzyme Assay (SPA, GST-Cdc25C phosphorylation). It is filed as biochemical. Conditions: ATP 64 nM, 90 minutes, read-out: IC50 (Plk1 enzyme inhibition).
Test [1] relates to human colon tumour cell line HT29. The test is described as follows: Cellular Assay (phosphohistone H3 Ser10 mitotic marker, HT29). It is filed as cell-based. Conditions: HT-29, 24 h, HT29 cells, read-out: IC50 (cellular assay, phosphohistone H3).
Protocol: Chromosome condensation in mitosis is accompanied by phosphorylation of histone H3 on serine 10.
After 24 hours, cells were fixed in 3.7% (v/v) formaldehyde then permeabilised and blocked for 10 minutes in 100 μl 0.5% (v/v) Triton X-100, 1% (w/v) bovine serum albumin (BSA) in phosphate buffered saline (PBS). […] The raw assay data were analysed by non-linear regression analysis and used to determine an IC50 value for each compound.

recombinant Plk1, sequence (P53350 whole entry): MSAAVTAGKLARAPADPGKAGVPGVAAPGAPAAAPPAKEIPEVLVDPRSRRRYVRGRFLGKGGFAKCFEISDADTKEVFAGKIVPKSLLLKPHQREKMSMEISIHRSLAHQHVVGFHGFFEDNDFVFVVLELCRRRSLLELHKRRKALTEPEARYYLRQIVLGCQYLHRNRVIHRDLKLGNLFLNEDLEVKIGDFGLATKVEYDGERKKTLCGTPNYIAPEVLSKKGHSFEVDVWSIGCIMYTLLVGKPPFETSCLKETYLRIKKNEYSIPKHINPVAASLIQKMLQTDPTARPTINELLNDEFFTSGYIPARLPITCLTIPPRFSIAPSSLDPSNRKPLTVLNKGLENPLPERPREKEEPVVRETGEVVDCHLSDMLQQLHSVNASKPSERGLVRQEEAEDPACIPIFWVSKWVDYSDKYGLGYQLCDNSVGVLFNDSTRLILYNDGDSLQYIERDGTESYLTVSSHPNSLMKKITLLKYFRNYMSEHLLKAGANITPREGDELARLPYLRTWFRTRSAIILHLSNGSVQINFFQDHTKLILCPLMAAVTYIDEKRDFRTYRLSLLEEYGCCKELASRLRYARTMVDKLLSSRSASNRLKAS

On to `CN1CCC(NC(=O)c2ccc(Nc3ncc4c(n3)N(C3CCCC3)CC(C)(C)C(=O)N4C)cc2)CC1` [Example 245, 4-[(2-cyclopentyl-4,4,6-trimethyl-5-oxo-2,6,9,11-tetrazabicyclo[5.4.0]undeca-7,9,11-trien-10-yl)amino]-N-(1-methyl-4-piperidyl)benzamide], for which the IC50 (on recombinant Plk1; in test [1]) was less than 300 nM each time.
Take `COc1cc(C(=O)NC2CCN(C)CC2)ccc1Nc1ncc2c(n1)N(C1CCCC1)CC1(CC1)C(=O)N2C` [Example 246, 4-(9′-cyclopentyl-5′-methyl-6′-oxo-5′,6′,8′,9′-tetrahydrospiro[cyclopropane-1,7′-pyrimido[5,4-b][1,4]diazepine]-2′-ylamino)-N-(1-methylpiperidin-4-yl)-3-methoxybenzamide]: the IC50 (at recombinant Plk1; in test [1]) was less than 300 nM each time.
With `CN1CCC(NC(=O)c2ccc(Nc3ncc4c(n3)N(c3ccccc3)CCC(=O)N4)c(Cl)c2)CC1` [Example 248, 3-chloro-N-(1-methyl-4-piperidyl)-4-[(3-oxo-6-phenyl-2,6,8,10-tetrazabicyclo[5.4.0]undeca-8,10,12-trien-9-yl)amino]benzamide], the IC50 on recombinant Plk1 is less than 100000 nM; in test [1], less than 30000 nM.
`CN(C)CC(C)(C)CNC(=O)c1ccc(Nc2ncc3c(n2)N(C2CCCC2)CCC(=O)N3)cc1` [Example 253, 4-[(6-cyclopentyl-3-oxo-2,6,8,10-tetrazabicyclo[5.4.0]undeca-8,10,12-trien-9-yl)amino]-N-(3-dimethylamino-2,2-dimethyl-propyl)benzamide]: the IC50 was less than 100000 nM at recombinant Plk1 and less than 30000 nM in test [1].
`O=C1CCN(C2CCCC2)c2nc(Nc3ccc(C(=O)NCCN4CCOCC4)cc3Cl)ncc2N1` [Example 257, 3-chloro-4-[(6-cyclopentyl-3-oxo-2,6,8,10-tetrazabicyclo[5.4.0]undeca-8,10,12-trien-9-yl)amino]-N-(2-morpholin-4-ylethyl)benzamide]: the IC50 at recombinant Plk1 was less than 100000 nM; in test [1], less than 30000 nM.
The like results for `CN1CCC(NC(=O)c2cnc(Nc3ncc4c(n3)N(C3CCCC3)CCC(=O)N4C)s2)CC1` [Example 263, 2-[(6-cyclopentyl-2-methyl-3-oxo-2,6,8,10-tetrazabicyclo[5.4.0]undeca-8,10,12-trien-9-yl)amino]-N-(1-methyl-4-piperidyl)1,3-thiazole-5-carboxamide] were, in that order, less than 100000 nM and less than 30000 nM.
The like results for `CN1CCC(NC(=O)c2cnc(Nc3ncc4c(n3)N(C3CCCC3)CCC(=O)N4C)o2)CC1` [Example 264, 2-[(6-cyclopentyl-2-methyl-3-oxo-2,6,8,10-tetrazabicyclo[5.4.0]undeca-8,10,12-trien-9-yl)amino]-N-(1-methyl-4-piperidyl)1,3-oxazole-5-carboxamide] were, in that order, less than 100000 nM and less than 30000 nM.
Turning to `CN1CCC(NC(=O)c2coc(Nc3ncc4c(n3)N(C3CCCC3)CCC(=O)N4C)n2)CC1` [Example 265, 2-[(6-cyclopentyl-2-methyl-3-oxo-2,6,8,10-tetrazabicyclo[5.4.0]undeca-8,10,12-trien-9-yl)amino]-N-(1-methyl-4-piperidyl)1,3-oxazole-4-carboxamide], the values for the 50% inhibitory concentration (IC50) (at recombinant Plk1; in test [1]) were less than 100000 nM and less than 30000 nM, respectively.
The matching figures for `CN1CCC(NC(=O)c2ccc(Nc3ncc4c(n3)N(C3CCCC3)CCC(=O)N4C)nc2)CC1` [Example 269, 6-[(6-cyclopentyl-2-methyl-3-oxo-2,6,8,10-tetrazabicyclo[5.4.0]undeca-8,10,12-trien-9-yl)amino]-N-(1-methyl-4-piperidyl)pyridine-3-carboxamide]: less than 300 nM and less than 1000 nM.
Consider `CN1CCC(NC(=O)c2ccc(Nc3ncc4c(n3)N(C3CCCC3)CCC(=O)N4C)cn2)CC1` [Example 270, 5-[(6-cyclopentyl-2-methyl-3-oxo-2,6,8,10-tetrazabicyclo[5.4.0]undeca-8,10,12-trien-9-yl)amino]-N-(1-methyl-4-piperidyl)pyridine-2-carboxamide], for which the half-inhibitory concentration (IC50) at recombinant Plk1 was less than 300 nM; in test [1] it was less than 30000 nM.
The like results for `COc1cc(C(=O)NC2CCN(C)CC2)ccc1Nc1ncc2c(n1)N(CC(=N)OC(C)CC(C)C)CCC(=O)N2C` (stereo not drawn) [Example 272, 3-methoxy-4-[[6-methyl-2-[(4-methylpentan-2-yloxycarbonimidoyl)methyl]-5-oxo-2,6,9,11-tetrazabicyclo[5.4.0]undeca-7,9,11-trien-10-yl]amino]-N-(1-methyl-4-piperidyl)benzamide] were, in that order, less than 1000 nM and less than 30000 nM.
The matching figures for `COc1cc(C(=O)NC2CCCCC2)ccc1Nc1ncc2c(n1)N(CCN(C)C)CCC(=O)N2C` [Example 275, N-cyclohexyl-4-[[2-(2-dimethylaminoethyl)-6-methyl-5-oxo-2,6,9,11-tetrazabicyclo[5.4.0]undeca-7,9,11-trien-10-yl]amino]-3-methoxy-benzamide]: less than 100000 nM and less than 30000 nM.
For the molecule `COc1cc(C(=O)NC2CCCCC2)ccc1Nc1ncc2c(n1)N(CCN1CCOCC1)CCC(=O)N2C` [Example 277, N-cyclohexyl-3-methoxy-4-[[6-methyl-2-(2-morpholin-4-ylethyl)-5-oxo-2,6,9,11-tetrazabicyclo[5.4.0]undeca-7,9,11-trien-10-yl]amino]benzamide], the 50% inhibitory concentration (IC50) is less than 100000 nM at recombinant Plk1 and less than 30000 nM in test [1].
The like results for `CCOc1cc(C(=O)NC2CCN(C)CC2)ccc1Nc1ncc2c(n1)N(C(C)C)CCC(=O)N2C` [Example 281, 3-ethoxy-4-[(6-methyl-5-oxo-2-propan-2-yl-2,6,9,11-tetrazabicyclo[5.4.0]undeca-7,9,11-trien-10-yl)amino]-N-(1-methyl-4-piperidyl)benzamide] were, in that order, less than 300 nM and less than 1000 nM.
The like results for `CCOc1cc(C(=O)NC2CCN(CC)CC2)ccc1Nc1ncc2c(n1)N(C(C)C)CCC(=O)N2C` [Example 282, 3-ethoxy-N-(1-ethyl-4-piperidyl)-4-[(6-methyl-5-oxo-2-propan-2-yl-2,6,9,11-tetrazabicyclo[5.4.0]undeca-7,9,11-trien-10-yl)amino]benzamide] were, in that order, less than 1000 nM and less than 1000 nM.
Consider `CCOc1cc(C(=O)N[C@H]2C[C@H]3CCC[C@@H](C2)N3C)ccc1Nc1ncc2c(n1)N(C(C)C)CCC(=O)N2C` [Example 283, 3-ethoxy-N-[(1S,5R)-9-methyl-9-azabicyclo[3.3.1]non-7-yl]-4-[(6-methyl-5-oxo-2-propan-2-yl-2,6,9,11-tetrazabicyclo[5.4.0]undeca-8,10,12-trien-10-yl)amino]benzamide], for which the IC50 (on recombinant Plk1; in test [1]) was less than 300 nM each time.
In the case of `CCCN1CCC(NC(=O)c2ccc(Nc3ncc4c(n3)N(C3CCCC3)CCC(=O)N4C)c(OC)c2)CC1` [Example 314, 4-[(2-cyclopentyl-6-methyl-5-oxo-2,6,9,11-tetrazabicyclo[5.4.0]undeca-7,9,11-trien-10-yl)amino]-3-methoxy-N-(1-propyl-4-piperidyl)benzamide], the IC50 (at recombinant Plk1; in test [1]) was less than 300 nM each time.
Take `CN(C)CCNC(=O)c1ccc(Nc2ncc3c(n2)N(C2CCCC2)CCC(=O)N3C)c(Cl)c1` [Example 315, 3-chloro-4-[(2-cyclopentyl-6-methyl-5-oxo-2,6,9,11-tetrazabicyclo[5.4.0]undeca-7,9,11-trien-10-yl)amino]-N-(2-dimethylaminoethyl)benzamide]: the IC50 (on recombinant Plk1; in test [1]) was less than 300 nM throughout.
For the molecule `CCN1CCC(NC(=O)c2ccc(Nc3ncc4c(n3)N(C3CCCC3)CCC(=O)N4C)c(Cl)c2)CC1` [Example 316, 3-chloro-4-[(2-cyclopentyl-6-methyl-5-oxo-2,6,9,11-tetrazabicyclo[5.4.0]undeca-7,9,11-trien-10-yl)amino]-N-(1-ethyl-4-piperidyl)benzamide], the IC50 (on recombinant Plk1; in test [1]) was less than 300 nM throughout.
Regarding `CN(C)CCCNC(=O)c1ccc(Nc2ncc3c(n2)N(C2CCCC2)CCC(=O)N3C)c(Cl)c1` [Example 317, 3-chloro-4-[(2-cyclopentyl-6-methyl-5-oxo-2,6,9,11-tetrazabicyclo[5.4.0]undeca-7,9,11-trien-10-yl)amino]-N-(3-dimethylaminopropyl)benzamide], the half-maximal inhibitory concentration (IC50) (on recombinant Plk1; in test [1]) was less than 300 nM throughout.
Take `CN1C(=O)CCN(C2CCCC2)c2nc(Nc3ccc(C(=O)NCCN4CCCC4)cc3Cl)ncc21` [Example 318, 3-chloro-4-[(2-cyclopentyl-6-methyl-5-oxo-2,6,9,11-tetrazabicyclo[5.4.0]undeca-7,9,11-trien-10-yl)amino]-N-(2-pyrrolidin-1-ylethyl)benzamide]: the IC50 (at recombinant Plk1; in test [1]) was less than 300 nM throughout.
For `COc1cc(C(=O)NC2CCN(CC3CC3)CC2)ccc1Nc1ncc2c(n1)N(C1CCCC1)CCC(=O)N2C` [Example 319, 4-[(2-cyclopentyl-6-methyl-5-oxo-2,6,9,11-tetrazabicyclo[5.4.0]undeca-7,9,11-trien-10-yl)amino]-N-[1-(cyclopropylmethyl)-4-piperidyl]-3-methoxy-benzamide], the IC50 (on recombinant Plk1; in test [1]) was less than 300 nM each time.
Regarding `COc1cc(C(=O)NC2CCN(C)CC2)c(Cl)cc1Nc1ncc2c(n1)N(C1CCCC1)CCC(=O)N2C` [Example 320, 2-chloro-4-[(2-cyclopentyl-6-methyl-5-oxo-2,6,9,11-tetrazabicyclo[5.4.0]undeca-7,9,11-trien-10-yl)amino]-5-methoxy-N-(1-methyl-4-piperidyl)benzamide], the 50% inhibitory concentration (IC50) (at recombinant Plk1; in test [1]) was less than 300 nM each time.
As for `CN1C(=O)CCN(C2CCCC2)c2nc(Nc3cc(F)c(C(=O)N[C@@H]4CCNC4)cc3Cl)ncc21` [Example 321, 5-chloro-4-[(2-cyclopentyl-6-methyl-5-oxo-2,6,9,11-tetrazabicyclo[5.4.0]undeca-7,9,11-trien-10-yl)amino]-2-fluoro-N-[(3R)-pyrrolidin-3-yl]benzamide], the half-maximal inhibitory concentration (IC50) (at recombinant Plk1; in test [1]) was less than 300 nM throughout.

In general, IC50 refers to the concentration at which inhibition is half-maximal.
